Measurements: patent US20060252707A1, “Pharmaceutical composition for the treatment and/or the prevention of atherosclerosis from infectious origin” (UNIVERSITE DE LIEGE, priority 2003, published 2006)
Entries after “also recorded” stand apart in the source; their conditions may differ.

Columns and labels:
[1] = test system: THP-1 cells conditioned with Chlamydia pneumoniae; experiment: Oxidant activity (ethylene production from KMB, gas liquid chromatography) of THP-1 cells conditioned with Chlamydia pneumoniae, then stimulated by PMA; type: cell-based, human; conditions: for Ethylene: % of THP-1 + Chlamydia
Method: This model has been described in details in Mouithys Mickalad et al. (Biochem Biophys Res Comm 2001, 287: 781-788). Treatment of the Cells with Chlamydia pneumoniae:
The monocytes (in multiwell plates, 2×10^6 cells/well) are conditioned by a pre-incubation of 19 hours with elementary bodies of Chlamydia pneumoniae (at a dose equivalent to a mean endotoxin concentration of 3.3 pg). The elementary bodies are obtained by Chlamydia culture in MacCoy cells (American Type Culture Collection, Rockville, USA).
After incubation with C. pneumoniae, the cells are washed and detached from the wells; they are put in sterile vials and an oxidable substrate, α-keto-methyl butyric acid (KMB) at 10^−3 M, is added. The vial is sealed and the following reagents are added by needle puncture. through the septum: 200 U horseradish peroxidase (HRP) and 10^−7 M phorbol myristate acetate (PMA).
PMA is a monocyte activator, enhancing the superoxide anion production by these cells. Superoxide anion dismutates into hydrogen peroxide (H2O2), which is used by HRP to form more oxidant species, able to oxidize KMB, releasing ethylene. After 3 hours of incubation at 37° C, ethylene, which has accumulated in the gaseous phase of the sealed vial is measured by gas liquid chromatography, on a Porapak T column (TM) equipped with flame ionisation detector. These assays can be made with the prior addition of a reagent able to inhibit or to stimulate the monocytes, the reagent being added, either at pre-incubation (at the same time as the Chlamydia EB), or at the moment of PMA activation.

superoxide anion = experiment: EPR spin-trapping of superoxide anion produced by Chlamydia-conditioned, PMA stimulated THP-1 cells; type: cell-based, human; conditions: 10 μM DPI; FIG. 5 lines I-5 and II-4; PMA 5×10^−7 M
Excerpt: Monocytes are conditioned by Chlamydia. The formation of this species was monitored by electron paramagnetic resonance, using spin-trapping agents.

[2] = test system: nuclear transcription factor kappaB (NF-κB); experiment: Activation of NF-κB (binding to DNA) by electrophoretic mobility shift assay in THP-1 cells pre-incubated with Chlamydia; type: cell-based, human; conditions: THP-1 + Chlamydia, % of THP-1 without preincubation with C pneumoniae (FIG. 7)
Method: FIG. 7 represents the effects of pre-incubation with Chlamydia on the activity of the nuclear transcription factor kappaB (NF-kB) (column 2). NF-kB is expressed in % of column 1 (THP-1 cells without preincubation with C pneumoniae)
The activation of NF-κB was measured by the technique of <<electrophoretic mobility shift assay>> (EMSA) (Schoonbroodt et al., 2000, J Immunol. 164: 4292-4300; Nys et al., 2003, Nitric Oxide 9: 33-43) (FIG. 7). The activation of NF-κB is expressed in % of control cells (cells which have not been pre-incubated with Chlamydia) (column 1). The incubation of monocytes with C. pneumoniae activates the NF-κB binding to DNA (FIG. 7, column 2).

[3] = Dunnick et al.; cited from earlier work
THP-1 cells = experiment: Microscopy of monocyte transformation into macrophages under Chlamydia pneumoniae; type: cell-based, human
Method: Incubation of THP-1 cells with C. pneumoniae induces the differentiation of monocytes (round floating cells, […] diameter; FIG. 1, 1) into macrophages, amiboid cells, which are larger than monocytes (30-50 μm diameter) and adhere to the support (FIGS. 1,2). Monocytes are stained with Giemsa and May-Grunwald stains (Merck, Germany) (Chemical methods of medical investigation, 1964, 10th edition by E. Merck AG. Darmstadt, Germany) and macrophages are observed by phase contrast microscopy.

THP-1 cell line = experiment: Model of foam cell formation from THP-1 monocytes (Chlamydia pneumoniae, then LDL or liposomes, Oil Red O); type: cell-based, human; conditions: 10^−5 M; LDL
Method: A model of foam cell formation from monocytes (THP-1 cell line) was developed. The cells are incubated for 19 hours with Chlamydia pneumoniae. This incubation is followed by the addition of human LDL or liposomes, and another incubation period of 48 hours. At the end of this second period of incubation, the cells are fixed and stained with oil Red O (Sigma, Belgium) (Smirnova et al., 2004, Am J Physiol Heart Circ Physiol. March 11 (Epub ahead of print) to highlight the foam cells. When drugs are used in this model, they are added at the same time as the LDL or liposomes. LDL are prepared from human blood drawn on EDTA. They are isolated by sequential flotation centrifugation with increased concentrations of KBr. After their isolation, LDL are dialysed, sterilised by filtration and their purity is confirmed by electrophoresis. Liposomes are lipid vesicles prepared by extrusion with cholesterol esters and phospholipids, mimicking lipoproteins.

[4] = not pre-incubated, added directly before the stimulation by PMA
[5] = drug added at cell conditioning with Chlamydia (pre-incubation 19 hours), then PMA 10^−7 M

**Q.** Which results are given for c1ccc([I+]c2ccccc2)cc1 [DPI, diphenyl iodonium]?
**A.** effect on ethylene production ([1]; DPI 5 μM, FIG. 3 column 7, PMA 10^−7 M): inhibits almost totally; effect on EPR signal of superoxide anion (superoxide anion): suppresses

**Q.** Which “NF-κB relative value (%)” value ([2]; 10^−5 M) does the source give for C[C@H]1C[C@@H]2[C@H]([C@@H](O)C[C@@]3(C)[C@H]2CC[C@]3(O)C(=O)CO)[C@@]2(C)C=CC(=O)C=C12 [MPL, methylprednisolone] here?
**A.** 417%

**Q.** And the “NF-κB relative value (%)” value ([2]; 10^−6 M)?
**A.** 450%

**Q.** For O=c1c(O)c(-c2ccc(O)c(O)c2)oc2cc(O)cc(O)c12 [Quercetin, quercetin], which “effect on oxidant activity / oxidation rate” value ([1]; 10^−4 M, pre-incubated with Chlamydia) is on record?
**A.** active; also recorded: inhibitor

**Q.** What about the Ethylene ([1]; FIG. 12, 10^−4 M incubated together with Chlamydia) of the same compound?
**A.** 2.0%

**Q.** And the Ethylene ([1]; FIG. 12, 10^−4 M not incubated (added just before PMA))?
**A.** 3.7%

**Q.** What about the Ethylene ([1]; FIG. 12, 10^−5 M incubated together with Chlamydia) of the same compound?
**A.** 100.0%

**Q.** And the Ethylene ([1]; FIG. 12, 10^−5 M not incubated (added just before PMA))?
**A.** 1.2%

**Q.** What about the Ethylene ([1]; FIG. 12, 10^−6 M incubated together with Chlamydia) of the same compound?
**A.** 131.0%

**Q.** And the Ethylene ([1]; FIG. 12, 10^−6 M not incubated (added just before PMA))?
**A.** 6.6%

**Q.** And the “effect on ethylene production” value [1, 4]?
**A.** quite completely inhibit the ethylene production

**Q.** What about the “concentrations at which toxicity does not exist” value [3] of the same compound?
**A.** ≤ 10^−4 M

**Q.** Which results are given for Oc1ccc(/C=C/c2cc(O)cc(O)c2)cc1 [Resveratrol, trans-reveratrol]?
**A.** Ethylene ([1]; FIG. 19, drug alone 10^−4 M, pre-incubation with Chlamydia): 18.3%; Ethylene ([1]; FIG. 19, drug alone 10^−5 M, pre-incubation with Chlamydia): 35.8%; effect on oxidant activity / oxidation rate [1, 5]: reduces the oxidizing activity of THP-1 cells; effect on ethylene production [1, 4]: inhibiting capacity is still more marked; inhibition of the monocyte transformation into macrophages (THP-1 cells; at 10^−4 M): nearly complete; inhibition of the monocyte transformation into macrophages (THP-1 cells; at 10^−5 M): partial; effect on transformation into foam cells (THP-1 cell line): completely inhibits

**Q.** Which “effect on oxidant activity / oxidation rate” value [1, 5] does the source give for CC(=O)c1ccc2c(c1)N(CCCN(C)C)c1ccccc1S2 [acepromazine] here?
**A.** little or no effect

**Q.** With COc1cc(C(C)=O)ccc1O [apocyanine, apocynine] as the compound, how does the “effect on oxidant activity / oxidation rate” value [1, 5] read?
**A.** little or no effect

**Q.** For CC/C(=C(/CC)c1ccc(O)cc1)c1ccc(O)cc1 [bertrol, trans-α-α-diethyl-p,p′-stilbenediol], which Ethylene ([1]; FIG. 21, drug alone 10^−4 M, pre-incubation with Chlamydia) is on record?
**A.** 1.6%

**Q.** What about the Ethylene ([1]; FIG. 21, drug alone 10^−5 M, pre-incubation with Chlamydia) of the same compound?
**A.** 32.0%

**Q.** For C[C@]12CC[C@@H]3c4ccc(O)cc4CC[C@H]3[C@@H]1CC[C@@H]2O [estradiol], which Ethylene ([1]; FIG. 10, 10^−4 M not pre-incubated (added just before PMA)) is on record?
**A.** 2.6%

**Q.** What about the Ethylene ([1]; FIG. 10, 10^−4 M pre-incubated with Chlamydia) of the same compound?
**A.** 140.0%

**Q.** And the Ethylene ([1]; FIG. 10, 10^−5 M not pre-incubated (added just before PMA))?
**A.** 2.9%

**Q.** What about the Ethylene ([1]; FIG. 10, 10^−5 M pre-incubated with Chlamydia) of the same compound?
**A.** 133.0%

**Q.** And the Ethylene ([1]; FIG. 10, 10^−6 M not pre-incubated (added just before PMA))?
**A.** 7.8%

**Q.** What about the Ethylene ([1]; FIG. 10, 10^−6 M pre-incubated with Chlamydia) of the same compound?
**A.** 85.0%

**Q.** With Oc1cc(O)cc(C=Cc2ccc(O)c(O)c2)c1 [piceatanol, 3,4,3′,5′tetrahydrostilbene] as the compound, how does the Ethylene ([1]; FIG. 20, drug alone 10^−4 M, pre-incubation with Chlamydia) read?
**A.** 0.4%

**Q.** What about the Ethylene ([1]; FIG. 20, drug alone 10^−5 M, pre-incubation with Chlamydia) of the same compound?
**A.** 57.0%

**Q.** For Oc1ccc(/C=C/c2ccccc2)cc1 [trans-4-stilbene, trans-4-hydrostilbene], which Ethylene ([1]; FIG. 22, drug alone 10^−4 M, pre-incubation with Chlamydia) is on record?
**A.** 1.8%

**Q.** What about the Ethylene ([1]; FIG. 22, drug alone 10^−5 M, pre-incubation with Chlamydia) of the same compound?
**A.** 14.0%

**Q.** With tocopherol as the compound, how does the Ethylene ([1]; FIG. 11 column 4, 10^−4 M pre-incubated) read?
**A.** 147.0%

**Q.** What about the Ethylene ([1]; FIG. 11 column 5, 10^−6 M pre-incubated (so in the source)) of the same compound?
**A.** 133.0%

**Q.** And the Ethylene ([1]; FIG. 11 column 6, 10^−6 M pre-incubated)?
**A.** 87.0%

**Q.** And the Ethylene ([1]; FIG. 11 column 7, 10^−4 M not pre-incubated (added just before PMA))?
**A.** 2.4%

**Q.** What about the Ethylene ([1]; FIG. 11 column 8, 10^−5 M not pre-incubated (added just before PMA)) of the same compound?
**A.** 2.5%

**Q.** And the Ethylene ([1]; FIG. 11 column 9, 10^−6 M not pre-incubated (added just before PMA))?
**A.** 77.0%

**Q.** And the “effect on oxidant activity / oxidation rate” value [1, 5]?
**A.** favouring the oxidation rate

**Q.** And the “effect on oxidant activity / oxidation rate” value ([1]; drug added at cell conditioning with Chlamydia (pre-incubation 19 hours), then PMA 10^−7 M, listed as vitamin E (tocopherol))?
**A.** little or no effect

**Q.** And the “effect on ethylene production” value [1, 4]?
**A.** quite completely inhibit the ethylene production
